Experimental data from patent US20130109734A1 (Metabolex, Inc., priority 2010, published 2013).

Target: T1, human GPR120 (Homo sapiens, UniProt Q5NUL3)
T1 construct: host or cells: HEK293 cells co-expressing Gqi5
T1 sequence (Q5NUL3 1-361): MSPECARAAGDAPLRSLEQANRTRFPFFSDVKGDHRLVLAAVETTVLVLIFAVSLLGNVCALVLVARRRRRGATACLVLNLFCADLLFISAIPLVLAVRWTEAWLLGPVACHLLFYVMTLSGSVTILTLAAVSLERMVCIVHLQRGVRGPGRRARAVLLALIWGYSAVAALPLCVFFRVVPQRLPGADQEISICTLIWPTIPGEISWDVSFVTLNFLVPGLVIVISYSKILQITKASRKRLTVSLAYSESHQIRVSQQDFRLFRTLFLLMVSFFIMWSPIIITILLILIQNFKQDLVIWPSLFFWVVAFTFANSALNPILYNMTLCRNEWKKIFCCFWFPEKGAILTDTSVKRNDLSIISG
Test: Intracellular Ca2+ assay in human GPR120 stable cell line (HEK293 co-expressing Gqi5), Flexstation
Type: cell-based
Conditions: % activity at 5 μM compared to the maximal activity of GW9508 at 6.7 μM (=100%); human GPR120 cells, Ca2+ fluorescence
Protocol: Human GPR120 stable cell line was purchased from Multispan Inc (26219 Eden Landing Road, Hayward, Calif. 94545). This GPR120 cell line was generated in HEK293 cells co-expressing Gqi5. In this cell line, the Flag epitope tag (DYKDDDDK) was fused to the amino terminus of human GPR120 protein.
The concentration of intracellular Ca^2+ was measured as described below. Human GPR120 cells were plated in 96 well plates (Poly-D-Lysine coated black/clear Plate, Greiner Bio-One) at 70,000 cells per well and cultured overnight in conditions of 37° C. and 5% CO2. A Ca^2+assay dye stock solution was prepared by adding 10 mL of assay buffer (HBSS/20 mM HEPES, pH 7.4) to FLIPR Calcium 4 Assay Bulk Kit (Molecular Devices). The 10 mL of Ca^2+ assay dye solution was prepared by further diluting 0.5 mL of Ca^2+ assay dye stock solution with 10 mL of assay buffer. The medium of the cells was removed and immediately 100 μL of the Ca^2+ assay dye solution was dispensed into each well followed by incubation at 37° C. and 5% CO2 for 50 minutes to incorporate the Ca^2+ dye into the cells. The cell plate was then placed in the Flexstation (Molecular Devices) for 20 minutes at 37° C. Compounds were dissolved in 100% DMSO and diluted to desired concentrations with assay buffer and placed in the Flexstation simultaneously with the cell plate for 20 minute incubation at 37° C. prior to reading. Fluorescence intensity was measured immediately following compound addition (25 μL/well) on the Flexstation at an excitation wavelength of 485 nm and an emission wavelength of 525 with 515 nm auto cutoff. The resulting increase in fluorescence intensities corresponds to increases in intracellular Ca^2+ levels.
Compounds were dissolved in 100% DMSO to a concentration of 20 mM to provide stock solutions. To determine activity against human GPR120, compounds were added with human GPR120 stably expressing cells (described above), at eight desired concentrations ranging from 0.00001 to 20 μM, in 96 well plates and fluorescence intensities were measured for 90 seconds with 2-second intervals. An EC50 value (concentration of the GPR120 agonist where 50% of the agonist's maximal activity is observed) was calculated using the changes (Max−Min) of fluorescence intensity.
To determine percent activity for a tested compound, the fluorescence intensity value obtained at a particular concentration were compared to the maximal fluorescence intensity value obtained for reference compound GW9508 (4-[[(3-phenoxyphenyl)methyl]amino]benzene propanoic acid; British Journal of Pharmacology 2006 148, 619-628) or the compound of Example 25. When GW9508 was used as the reference compound, the maximal activity of GW9508 at 6.7 μM was designated as 100% activity. When the compound of Example 25 was used as the reference compound, the maximal activity of the compound of Example 25 at 2.5 μM was designated as 100% activity. Typically, the GW9508 activity reached a maximum at a concentration of approximately 6.7 μM and typically the compound of Example 25 reached a maximum activity at approximately 2.5 μM.

Row | Compound | % Activity (GW9508 Reference Compound)
1 | CC(Cc1ccc(OCc2cc(F)cc3c2OC(C)(C)C3)c(F)c1)C(=O)O (stereo not shown) [Example 8, 3-(3-fluoro-4-((5-fluoro-2,2-dimethyl-2,3-dihydrobenzofuran-7-yl)methoxy)phenyl)-2-methylpropanoic acid] | 135.3906%
2 | C[C@H](Cc1ccc(OCc2cc(Cl)cc3c2OC(C)(C)C3)c(F)c1)C(=O)O [Example 141, (R)-3-(4-((5-chloro-2,2-dimethyl-2,3-dihydrobenzofuran-7-yl)methoxy)-3-fluorophenyl)-2-methylpropanoic acid] | 143.3%
3 | CCc1c(CCC(=O)O)ccc(OCc2cc(F)cc3c2OC(C)(C)C3)c1F [Example 216, 3-(2-ethyl-3-fluoro-4-((5-fluoro-2,2-dimethyl-2,3-dihydrobenzofuran-7-yl)methoxy)phenyl)propanoic acid] | 144.23%
4 | C[C@H](Cc1ccc(OCc2cc(F)cc3c2OC(C)(C)C3)cc1)C(=O)O [Example 65, (R)-3-(4-((5-fluoro-2,2-dimethyl-2,3-dihydrobenzofuran-7-yl)methoxy)phenyl)-2-methylpropanoic acid] | 141.04%
5 | CC(Cc1cc(F)c(OCc2cccc3c2OCC3)c(F)c1)C(=O)O (stereo not shown) [Example 3, 3-(4-((2,3-dihydrobenzofuran-7-yl)methoxy)-3,5-difluorophenyl)-2-methylpropanoic acid] | 123.7995%
6 | CC1(C)Cc2cc(Cl)cc(COc3c(F)cc(C4CC4C(=O)O)cc3F)c2O1 (racemic) [Example 35, 2-(4-((5-chloro-2,2-dimethyl-2,3-dihydrobenzofuran-7-yl)methoxy)-3,5-difluorophenyl)cyclopropanecarboxylic acid] | 60.11%
7 | CC1(C)Cc2cc(F)cc(COc3c(F)cc(CC4CC4C(=O)O)cc3F)c2O1 (single isomer, unassigned) [Example 184B, 2-(3,5-difluoro-4-((5-fluoro-2,2-dimethyl-2,3-dihydrobenzofuran-7-yl)methoxy)benzyl)cyclopropanecarboxylic acid] | 130.66%
8 | COc1cc(OCc2cc(Cl)cc3c2OC2(CCCC2)C3)ccc1CCC(=O)O [Example 194, 3-(4-((5-chloro-3H-spiro[benzofuran-2,1′-cyclopentane]-7-yl)methoxy)-2-methoxyphenyl)propanoic acid] | 148.21%
9 | CC(CC(=O)O)Cc1ccc(OCc2cc(F)cc3c2OC(C)(C)C3)cc1 (stereo not shown) [Example 182, 4-(4-((5-fluoro-2,2-dimethyl-2,3-dihydrobenzofuran-7-yl)methoxy)phenyl)-3-methylbutanoic acid] | 98.43%
10 | CC(Cc1cc(F)c(OCc2c(F)c(F)cc3c2OC(C)(C)C3)c(F)c1)C(=O)O (stereo not shown) [Example 42, 3-(4-((5,6-difluoro-2,2-dimethyl-2,3-dihydrobenzofuran-7-yl)methoxy)-3,5-difluorophenyl)-2-methylpropanoic acid] | 140.94%
11 | CC(Cc1cc(F)c(OCc2cc(OCc3ccccc3)cc3c2OC(C)(C)C3)c(F)c1)C(=O)O (stereo not shown) [Example 111, 3-(4-((5-(benzyloxy)-2,2-dimethyl-2,3-dihydrobenzofuran-7-yl)methoxy)-3,5-difluorophenyl)-2-methylpropanoic acid] | 51.55%
12 | Cc1cc2cc(Cl)cc(COc3ccc(CC(C)C(=O)O)cc3F)c2o1 (stereo not shown) [Example 120, 3-(4-((5-chloro-2-methylbenzofuran-7-yl)methoxy)-3-fluorophenyl)-2-methylpropanoic acid] | 104.49%
13 | CC1(C)Cc2c(COc3ccc4c(c3)CC[C@@H]4CC(=O)O)cc(F)cc2O1 [Example 188, (R)-2-(5-((6-fluoro-2,2-dimethyl-2,3-dihydrobenzofuran-4-yl)methoxy)-2,3-dihydro-1H-inden-1-yl)acetic acid] | 104.04%
14 | CC(Cc1cc(F)c(OCc2cccc3c2OC(C)(C)CC3)c(F)c1)C(=O)O (stereo not shown) [Example 2, 3-(4-((2,2-dimethylchroman-8-yl)methoxy)-3,5-difluorophenyl)-2-methylpropanoic acid] | 134.6745%
15 | Cc1cc(OCc2cc(F)cc3c2OC(C)(C)C3)ccc1CCC(=O)O [Example 46, 3-(4-((5-fluoro-2,2-dimethyl-2,3-dihydrobenzofuran-7-yl)methoxy)-2-methylphenyl)propanoic acid] | 113.55%
16 | CC(Cc1cc(F)c(OCc2cccc3c2OC(C)(C)C3)c(F)c1)C(=O)O (stereo not shown) [Example 23, 3-(4-((2,2-dimethyl-2,3-dihydrobenzofuran-7-yl)methoxy)-3,5-difluorophenyl)-2-methylpropanoic acid] | 112.7429%
17 | Cc1cc(CC(C)C(=O)O)ccc1OCc1cc(Cl)cc2c1OC(C)(C)C2 (stereo not shown) [Example 11, 3-(4-((5-chloro-2,2-dimethyl-2,3-dihydrobenzofuran-7-yl)methoxy)-3-methylphenyl)-2-methylpropanoic acid] | 124.2119%
18 | CC(Cc1ccc(OCc2cc(Cl)cc3c2OC2(CCCC2)C3)cc1)C(=O)O (stereo not shown) [Example 159, 3-(4-((5-chloro-3H-spiro[benzofuran-2,1′-cyclopentane]-7-yl)methoxy)phenyl)-2-methylpropanoic acid] | 164.79%
19 | Cc1cc2c(OCc3cc(F)cc4c3OC(C)(C)C4)ccc(CCC(=O)O)c2o1 [Example 125, 3-(4-((5-fluoro-2,2-dimethyl-2,3-dihydrobenzofuran-7-yl)methoxy)-2-methylbenzofuran-7-yl)propanoic acid] | 32.57%
20 | CC(C)C(CC(=O)O)c1ccc(OCc2cc(Cl)cc3c2OC(C)(C)C3)cc1 (stereo not shown) [Example 266, 3-(4-((5-chloro-2,2-dimethyl-2,3-dihydrobenzofuran-7-yl)methoxy)phenyl)-4-methylpentanoic acid] | 42.73%
21 | CC(Cc1ccc(OCc2ccc(F)c3c2OC(C)(C)C3)cc1)C(=O)O (stereo not shown) [Example 30, 3-(4-((4-fluoro-2,2-dimethyl-2,3-dihydrobenzofuran-7-yl)methoxy)phenyl)-2-methylpropanoic acid] | 176.6%
22 | [2H]C([2H])(Oc1ccc(CCC(=O)O)c(CC)c1F)c1cc(F)cc2c1OC(C)(C)C2 [Example 228, 3-(4-(dideuterio(5-fluoro-2,2-dimethyl-2,3-dihydrobenzofuran-7-yl)methoxy)-3-fluoro-2-ethylphenyl)propanoic acid] | 119.11%
23 | CC(Cc1ccc(OCc2cc(F)cc3c2OC(C)(C)C3)cc1)C(=O)O (stereo not shown) [Example 16, 3-(4-((5-fluoro-2,2-dimethyl-2,3-dihydrobenzofuran-7-yl)methoxy)phenyl)-2-methylpropanoic acid] | 110.8294%
24 | CC1(C)Cc2cc(Cl)cc(COc3ccc4c(c3)CC[C@H]4CC(=O)O)c2O1 [Example 176, (S)-2-(5-((5-chloro-2,2-dimethyl-2,3-dihydrobenzofuran-7-yl)methoxy)-2,3-dihydro-1H-inden-1-yl)acetic acid] | 138.42%
25 | CC1(C)Cc2cc(F)cc(COc3ccc(CCC(=O)O)c(Cl)c3)c2O1 [Example 47, 3-(2-chloro-4-((5-fluoro-2,2-dimethyl-2,3-dihydrobenzofuran-7-yl)methoxy)phenyl)propanoic acid] | 111.18%
